{"source": "paper PMC3779320", "about": "“Bub3 reads phosphorylated MELT repeats to promote spindle assembly checkpoint signaling” (eLife, 2013)", "key": {"Bub3": {"target": "T1, Bub3 (Saccharomyces cerevisiae, UniProt P26449)", "T1 construct": "S. cerevisiae Bub1^289–359 and for full length Bub3; made in house", "T1 sequence (P26449 1-341)": "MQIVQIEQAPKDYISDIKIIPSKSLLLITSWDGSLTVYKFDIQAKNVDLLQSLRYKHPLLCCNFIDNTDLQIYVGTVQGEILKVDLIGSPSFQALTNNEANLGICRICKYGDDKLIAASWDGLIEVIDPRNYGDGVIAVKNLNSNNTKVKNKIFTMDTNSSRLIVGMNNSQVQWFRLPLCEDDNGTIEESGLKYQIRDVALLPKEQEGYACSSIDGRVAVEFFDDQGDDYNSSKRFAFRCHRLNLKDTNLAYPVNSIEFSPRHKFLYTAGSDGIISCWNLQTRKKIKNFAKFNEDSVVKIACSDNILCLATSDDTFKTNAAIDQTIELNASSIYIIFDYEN", "test": "ITC binding to Bub3 in the absence of Bub1", "settings": "Bub3 without Bub1 compared to the Bub1–Bub3 complex", "procedure": "However, as already anticipated in the Introduction, several lines of evidence indicate that Bub1 contributes to this interaction (Discussion). To test this possibility formally, we measured the binding of purified Bub3 (Figure 1D) to the MELT2^P peptide in the absence of Bub1.\nBinding isotherm was measured at 25°C by isothermal titration calorimetry on a MicroCal ITC200 device (GE Healthcare, Piscataway, NJ). All samples were extensively dialysed into fresh GF buffer (20 mM Tris pH7.5, 150 mM NaCl, 1 mM DTE). In each titration, the Bub1^289–359–Bub3 in the cell (at a 30 µM concentration) was titrated with thirty-five 2-µl injections (at 90 s intervals) of the indicated synthetic MELT^P peptides (at a concentration of 400 µM). The injections were continued beyond saturation levels to allow for determination of heats of ligand dilution. Data were fitted by least-square procedures to a single-site binding model using ORIGIN 5.0 software package (MicroCal, Northampton, MA)."}, "Bub1^289–359–Bub3^R217A": {"target": "T2, Bub1^289–359–Bub3^R217A (Saccharomyces cerevisiae, UniProt P26449+P41695, R217A)", "T2 construct": "S. cerevisiae Bub1^289–359 and for full length Bub3; GST (N, cleaved yes); made in house; host or cells: E. coli BL21 DE3 plysS", "T2 sequence (P26449 1-341 R217A)": "T1 sequence (P26449 1-341) with R217A", "T2 sequence (P41695 289-359)": "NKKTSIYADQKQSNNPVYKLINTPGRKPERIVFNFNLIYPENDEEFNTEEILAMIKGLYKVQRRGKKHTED", "test": "ITC binding to Bub1^289–359–Bub3^R217A", "settings": "Bub3 R217A compared with wild type (13- to 25-fold for R217A or R239A)", "text": "Because the presence of a phosphate on Thr172^Spc105/Knl1 is essential for high-affinity binding of ScBub1^289–359–Bub3 to MELT^P peptides (Figure 1), we concentrated our mutational analysis on two residues that are directly implicated in the recognition of the peptide’s phospho-threonine, Arg217^Bub3 and Arg239^Bub3. Positively charged residues are invariant at these positions of the Bub3 alignment (Figure 2C). We generated single or double alanine mutants of Arg217^Bub3 and Arg239^Bub3 in the context of ScBub1^289–359–Bub3 and tested their binding affinity for the MELT2^P peptide by ITC.\ncDNA sequences coding for S. cerevisiae Bub1^289–359 and for full length Bub3 were subcloned in the first and second cassettes of pGEX-6P-2rbs vector ([Ciferri et al., 2005]). In this construct, the cDNA encoding Bub1^289–359 was sub-cloned in frame with the gene encoding GST and a cleavage site for PreScission protease, and was translated from the first ribosome-binding site (rbs). Untagged Bub3 was subcloned downstream of the second rbs in the same vector. Expression was carried out in BL21 DE3 plysS cells in LB medium by auto-induction with 0.3% lactose at 18°C for approximately 16 hr. […]\nBinding isotherm was measured at 25°C by isothermal titration calorimetry on a MicroCal ITC200 device (GE Healthcare, Piscataway, NJ). […]"}}, "note": "Substitutions are numbered along the chain they refer to. Square brackets hold non-standard residues; d marks the D form. Peptide text beside a SMILES is read from it. pT = C[C@@H](OP(=O)(O)O)[C@H](N)C(=O)O"}
{"molecule": "CC[C@H](C)[C@H](NC(=O)[C@H](CO)NC(=O)[C@H](CCCNC(=N)N)NC(=O)[C@@H]1CCCN1C(=O)[C@H](Cc1ccccc1)NC(=O)[C@@H](NC(=O)[C@H](CCC(=O)O)NC(=O)[C@@H](NC(=O)[C@H](CCSC)NC(=O)[C@H](CCC(=O)O)NC(=O)[C@H](CCSC)NC(=O)[C@H](CO)NC(=O)[C@@H](NC(=O)[C@@H]1CCCN1C(=O)[C@H](CC(=O)O)NC(C)=O)[C@@H](C)O)[C@@H](C)OP(=O)(O)O)C(C)C)C(=O)N[C@@H](CCCNC(=N)N)C(=O)N[C@@H](CCC(N)=O)C(=O)N[C@@H](CCCCN)C(=O)N[C@@H](CC(N)=O)C(N)=O", "note": "[MELT2^P] (Ac-DPTSMEM[pT]EVFPRSIRQKN-NH2; N-terminus and C-terminus assumed)", "values": [{"measurement": "fold reduction in binding affinity", "setting": "Bub3", "value": 10, "unit": "fold"}, {"measurement": "fold reduction in binding affinity", "setting": "Bub1^289–359–Bub3^R217A", "value": 13, "unit": "fold"}]}
